US8673980B2, “Closthioamides, compositions, and methods for treating bacterial or fungal infections or cancer” (Leibniz-Institut fuer Naturstoff-Forschung und …, priority 2009, dated 2014)
Values after ≈ are worked out from the molar mass of the structure shown.

Columns and labels:
Type in all cases: cell-based
Bacillus subtilis = test: Standardized antimicrobial assay (agar diffusion test)
Description: (§1) For the detailed evaluation of their antimicrobial (antibacterial, antifungal) activity, dosthioamides according to the invention were subjected to standardized antimicrobial assays (Herold et al., Chem. Eur. J., 2005), e.g. agar diffusion test. In particular, closthioamide 1 was tested for its inhibitory effect on cell growth of different bacterial strains and/or fungi. The tested microbes included Bacillus subtilis, Staphylococcus aureus, E. coli, Pseudomonas aeruginosa, Staphylococcus aureus MRSA, Enterococcus faecalis VRE, Mycobacterium vaccae, Sporobolomyces salmonicolor, Candida albicans, and Penicillium notatum.

Mycobacterium vaccae = test: as above
Description: as §1

Staphylococcus aureus = test: as above
Description: as §1

Penicillium notatum = test: as above
Description: as §1

[1] = test system: Sporobolomyces salmonicolor; test: as above
Description: as §1

E. coli = test: as above
Description: as §1

Candida albicans = test: as above
Description: as §1

Pseudomonas aeruginosa = test: as above
Description: as §1

K-562 = test: Antiproliferative activity on K-562 cells; settings: K562; K-562 human erythromyeloblastoid leukemia cells
Description: (§2) For the detailed evaluation of its biological profile as anti-cancer agent, cultured human tumor cell lines were treated with the closthioamide 1. In particular, closthioamide 1 was tested for its inhibitory effect on cell growth of different human cell lines.

[2] = test system: E. coli, Mycobacterium vaccae, MRSA, VRE; test: Activity of synthetic closthioamide using 4 bacterial test strains (FIG. 4A)
Text: (§3) FIG. 4. A Activity of synthetic closthioamide (1) using 4 bacterial test strains; from left to right: (1) E. coli, (2) Mycobacterium vaccae, (3) methicillin-resistant Staphylococcus aureus (MRSA), (4) vancomycin-resistant Enterococcus faecalis (VRE). B Ciprofloxacin control.

HUVEC = test: Antiproliferative activity on HUVEC cells; settings: HUVEC human umbilical vein endothelial cells
Description: as §2

[3] = test system: Enterococcus faecalis VRE; test: Standardized antimicrobial assay (agar diffusion test); settings: for antibacterial activity: vancomycin-resistant Enterococcus faecalis
Text: as §3, §1

[4] = test system: Staphylococcus aureus MRSA; test: as above
Text: as §3, §1

HeLa = test: Cytotoxicity on HeLa cells; settings: HeLa human epithelial cervical cancer
Description: The major metabolite (1) was isolated from a 5 L culture and purified by sequential open column chromatography and RP-HPLC (FIG. 1), yielding 1.04 mg of a pale yellow compound. […] According to HR-MS measurements, 1 has a molecular formula of C29H38N6O2S6 and appeared to be amazingly rich in sulfur atoms. Furthermore, NMR data disclosed that the molecule is symmetrical: The ^13C NMR and DEPT spectra indicated the presence of six methylene, two methine, and five quaternary carbons. In the ^1H NMR spectrum signals corresponding to two olefinic and six methylene protons were observed (see Table 1).
as §2

[5] = Cytotoxicity (data not shown)

In the case of `Oc1ccc(C(=S)NCCC(=S)NCCC(=S)NCCCNC(=S)CCNC(=S)CCNC(=S)c2ccc(O)cc2)cc1` [closthioamide 1, closthioamide], the antimicrobial activity (Bacillus subtilis) is reported as “showed activity”, the antimicrobial activity (Mycobacterium vaccae) is reported as “showed activity” and the antimicrobial activity (Staphylococcus aureus) is reported as “showed activity”. For the same molecule, the antimicrobial activity (Penicillium notatum) was “showed activity”, the antimicrobial activity [1] was “showed activity” and the antimicrobial activity (E. coli) was “showed activity”. For the same molecule, the antimicrobial activity (Candida albicans) was “showed activity”, the antimicrobial activity (Pseudomonas aeruginosa) was “showed activity” and the GI50 (K-562) was 1.5 µg/mL (≈ 2.16 µM). For the same molecule, the “activity of synthetic compound compared with the bacterial metabolite” value [2] was “equivalent to the activity of the bacterial metabolite”, the GI50 (HUVEC) was 6.4 µg/mL (≈ 9.21 µM) and the antimicrobial activity ([3]; Enterococcus faecalis VRE) was “showed activity”. The antibacterial activity ([3]; FIG. 4, synthetic closthioamide) was “highly active”, the antibacterial activity ([3]; preliminary bioactivity profiling, isolated metabolite) was “antibacterial activity” and the antibacterial activity ([4]; FIG. 4, synthetic closthioamide, methicillin-resistant Staphylococcus aureus) was “highly active”. The antimicrobial activity ([4]; Staphylococcus aureus MRSA) was “showed activity”, the antibacterial activity ([4]; preliminary bioactivity profiling, isolated metabolite, methicillin-resistant Staphylococcus aureus (MRSA)) was “antibacterial activity” and the CC50 (HeLa) was 5.1 µg/mL (≈ 7.34 µM). The cytotoxicity [5] was “only moderate cytotoxicity”.
